In US8193191B2, “Urotensin II receptor antagonists” (Janssen Pharmaceutica N.V., priority 2006, dated 2012):

Legend:
[1] = target: T1, rat GPR14 (U-II receptor) (Rattus norvegicus, UniProt P49684); assay: Rat UII Calcium Mobilization FLIPR Assay; type: cell-based; settings: average value for the compound tested; read-out: Rat UII FLIPR Average IC50
T1 construct: expressed in transfected cells
T1 sequence (P49684 1-386): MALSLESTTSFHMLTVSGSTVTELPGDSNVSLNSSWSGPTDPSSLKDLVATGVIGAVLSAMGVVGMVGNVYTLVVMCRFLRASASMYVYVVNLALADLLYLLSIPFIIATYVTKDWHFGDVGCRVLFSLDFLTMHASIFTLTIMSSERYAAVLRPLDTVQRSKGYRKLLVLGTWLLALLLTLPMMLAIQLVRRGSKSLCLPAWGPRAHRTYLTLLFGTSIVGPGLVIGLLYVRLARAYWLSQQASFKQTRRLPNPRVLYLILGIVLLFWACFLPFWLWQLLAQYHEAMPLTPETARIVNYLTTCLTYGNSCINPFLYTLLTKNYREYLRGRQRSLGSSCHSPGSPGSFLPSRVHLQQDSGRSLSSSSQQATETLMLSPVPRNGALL
Outline: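 Fluorescent calcium signals were recorded at room temperature (23° C) by FLIPR. Stable rat U-II receptor CHO lines had been dye-loaded for 1 h at 37° C in pH 7.4 HBSS containing 20 mM HEPES, 0.1% BSA and 2.5 mM probenecid.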

[2] = target: T2, Human UII receptor, 6D9 human rhabdomyosarcoma cells (Homo sapiens, UniProt Q9UKP6); assay: Human UII Calcium Mobilization Assay; type: cell-based; settings: average value, FLIPR TETRA, read-out: Human UII Ca^+ Mobilization Average IC50
T2 construct: 6D9: isolated by dilution subcloning of RMS13 cells, ATCC® Number: CRL-2061; host or cells: 6D9 human rhabdomyosarcoma cells (subclone of RMS13)
T2 sequence (Q9UKP6 1-389): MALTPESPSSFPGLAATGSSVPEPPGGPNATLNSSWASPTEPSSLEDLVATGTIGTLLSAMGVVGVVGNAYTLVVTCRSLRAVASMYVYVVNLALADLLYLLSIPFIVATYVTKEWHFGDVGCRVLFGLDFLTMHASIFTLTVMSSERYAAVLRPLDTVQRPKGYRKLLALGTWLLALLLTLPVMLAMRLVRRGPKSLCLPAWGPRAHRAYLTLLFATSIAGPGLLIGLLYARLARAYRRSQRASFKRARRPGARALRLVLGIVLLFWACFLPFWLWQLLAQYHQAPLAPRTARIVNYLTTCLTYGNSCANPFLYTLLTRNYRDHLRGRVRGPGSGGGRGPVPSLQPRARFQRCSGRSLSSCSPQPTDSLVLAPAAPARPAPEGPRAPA
Outline: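 FLIPR calcium responses were recorded for 4 minutes after room-temperature addition of test antagonist and U-II, in dye-loaded human 6D9 cells (37° C, 45 min; HBSS/HEPES with probenecid 1.25 mM). Compounds serially diluted in HBSS/HEPES, up to 0.1% DMSO; curves gave IC50 and EC50.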

[3] = target: T3, endogenous human UII receptor (Homo sapiens, UniProt Q9UKP6); assay: Human Radioligand Binding Assay ((^125I)-U-II binding to human skeletal muscle myoblasts)
T3 sequence (Q9UKP6 1-389): T2 sequence (Q9UKP6 1-389)

[4] = test system: isolated arterial rings of rats; settings: read-out: EC50 of contraction; cited from earlier work
[5] = test system: isolated arterial rings of humans; settings: read-out: EC50 of contraction; cited from earlier work
[6] = target: T1, rat GPR14 (U-II receptor); settings: agonist peptide, CHO cells transfected with rat GPR14; read-out: FLIPR EC50; cited from earlier work
rU-II receptor = target: T4, rU-II receptor (Rattus norvegicus, UniProt P49684); settings: agonist peptide; cited from earlier work
T4 sequence (P49684 1-386): T1 sequence (P49684 1-386)

| IC50 [1] [nM] | IC50 [2] [nM] | Ki [3] [nM] | Molecule | EC50 [4] [nM] | EC50 [5] [nM] | EC50 [6] [nM] | Ki (rU-II receptor) [nM] |
| --- | --- | --- | --- | --- | --- | --- | --- |
| 49 | 780 | 25 | COc1ccc([C@@H](CCCN(C)S(=O)(=O)O)N2C(=O)c3cccc(N4CCN([C@H](C)c5ccccc5)CC4)c3C2=O)cc1OC [Cpd 228, (R)-(4-(3,4-dimethoxy-phenyl)-4-{1,3-dioxo-4-[4-(1R)-(1-phenyl-ethyl)-piperazin-1-yl]-1,3-dihydro-isoindol-2-yl}-butyl)-methyl-sulfamic acid] |  |  |  |  |
| > 100 | 1700 | 320 | COc1ccc([C@@H](CCCNS(=O)(=O)c2cccs2)N2C(=O)c3cccc(OCCN(C)C)c3C2=O)cc1OC [Cpd 229, (R)-thiophene-2-sulfonic acid {4-(3,4-dimethoxy-phenyl)-4-[4-(2-dimethylamino-ethoxy)-1,3-dioxo-1,3-dihydro-isoindol-2-yl]-butyl}-amide] |  |  |  |  |
| 290 | 1900 | > 300 | CCN1CCN(c2cccc3c2C(=O)N(C(c2cccc(NCc4ccccc4)c2)c2ccc(OC)c(OC)c2)C3=O)CC1 (stereo not shown) [Cpd 230, 2-[(3-benzylamino-phenyl)-(3,4-dimethoxy-phenyl)-methyl]-4-(4-ethyl-piperazin-1-yl)-isoindole-1,3-dione] |  |  |  |  |
| 680 | 3400 | 511 | CCN1CCN(c2cccc3c2C(=O)N(C(c2cccc(NS(=O)(=O)O)c2)c2ccc(OC)c(OC)c2)C3=O)CC1 (stereo not shown) [Cpd 231, (3-{(3,4-dimethoxy-phenyl)-[4-(4-ethyl-piperazin-1-yl)-1,3-dioxo-1,3-dihydro-isoindol-2-yl]-methyl}-phenyl)-sulfamic acid] |  |  |  |  |
| 410 | 4100 | > 300 | CCN1CCN(c2cccc3c2C(=O)N(C(CC2CCN(Cc4ccccc4)CC2)c2ccc(OC)c(OC)c2)C3=O)CC1 (stereo not shown) [Cpd 232, 2-[2-(1-benzyl-piperidin-4-yl)-1-(3,4-dimethoxy-phenyl)-ethyl]-4-(4-ethyl-piperazin-1-yl)-isoindole-1,3-dione] |  |  |  |  |
| 660 | 770 | 57 | CCN1CCN(c2cccc3c2C(=O)N(C(CC2CCN(S(=O)(=O)O)CC2)c2ccc(OC)c(OC)c2)C3=O)CC1 (stereo not shown) [Cpd 233, 4-{2-(3,4-dimethoxy-phenyl)-2-[4-(4-ethyl-piperazin-1-yl)-1,3-dioxo-1,3-dihydro-isoindol-2-yl]-ethyl}-piperidine-1-sulfonic acid] |  |  |  |  |
| 51 | 1700 | 280 | CCN1CCN(c2cccc3c2C(=O)N(C(CC2CCN(S(=O)(=O)c4cccs4)CC2)c2ccc(OC)c(OC)c2)C3=O)CC1 (stereo not shown) [Cpd 234, 2-{1-(3,4-dimethoxy-phenyl)-2-[1-(thiophene-2-sulfonyl)-piperidin-4-yl]-ethyl}-4-(4-ethyl-piperazin-1-yl)-isoindole-1,3-dione] |  |  |  |  |
|  |  |  | AGTAD-cyclo(CFWKYC)—V [Goby U-II, Urotensin-II isolated from the urophysis of the goby fish (Gillichthys mirabilis) as a 12-mer] | < 1 | < 1 |  |  |
|  |  |  | Acetyl-cyclic[Cys-Phe-Trp-Lys-(2-Nal)-Cys]-NH2 [(Ac)—CFWK(2-NaI)C—NH2, agonist cyclic peptide used at 1 nM to induce Ca2+ mobilization in the rat UII FLIPR assay] |  |  | 0.54 ± 0.2 | 0.12 ± 0.05 |
